# From patent US12703836B2, “Mixture of compounds with high molecular weights, obtained from sugar cane wax (Saccharum officinarum L.)” (CENTRO NACIONAL DE INVESTIGACIONES CIENTÍFICAS, priority 2021, dated 2026)
# Assays:
# [1] = system: rabbits with spinal cord damage induced by Ischemia/Reperfusion (I/R); test: Mortality in spinal cord ischemia/reperfusion; type: in vivo, New Zealand rabbits; conditions: oral for 10 days: HMWS 200, AcGS 132, AlcG 40, AldG 28, AcGL 200, ASA 2 mg/kg, positive control 80
# Protocol: The neuroprotective effect of the HMWS mixture, object of the present invention, was also investigated using an experimental model of induction of ischemia in the spinal cord. The composition obtained in example 2 was subjected to a preclinical test in which its pharmacological effect was compared with the effects of pure extracts of Fatty Acids in the form of Salts (AcGS), fatty alcohols (AlcG) and high molecular weight aldehydes (AldG), which were administered at doses equivalent to that of those respective substances in 200 mg/kg of the HMWS Active Ingredient. Furthermore, the effect of HMWS was compared with that of pure extract of free fatty acids (AcGL) administered at equal doses.
# Male New Zealand rabbits (1.8-2.2 kg) were used, which were adapted for 15 days to laboratory conditions (temperature of 20 to 25° C., relative humidity of 60±5%, light/dark cycles of 12 hours), with free access to water and food.
# The substances HMWS, AcGS, AlcG, AldG, AcGL and aspirin were prepared as suspensions in an acacia/water vehicle (1%). […]
# For the induction of ischemia in the spinal cord, the rabbits were anesthetized with thiopental (20 mg/kg i.v.). […] At 4 and 24 hours of reperfusion, the neurological deficit of the animals was blindly evaluated by 2 independent observers (according to Zivin et al., 1982). […]
# [2] = system: plasma sulfhydryl (SH) groups; test: Plasma protein oxidation (sulfhydryl groups) after cerebral ischemia/reperfusion; type: in vivo, Mongolian gerbils; conditions: gerbils, plasma after I/R; oral HMWS 200, AcGS 132, AlcG 40, AldG 28, AcGL 200, ASA 60 mg/kg
# From the text: For the evaluation of the neuroprotective effect of the mixture of high molecular weight substances, the object of the present invention, an experimental model of global cerebral ischemia by occlusion and reperfusion of the carotid arteries was used. The composition of High Molecular Weight Substances (HMWS) obtained in example 1 was subjected to a preclinical test with animals, in which its pharmacological effect was compared with the effects of pure extracts of Fatty Acids in the form of Salts (AcGS), fatty alcohols (AlcG) and high molecular weight aldehydes (AldG), which were administered in the dose equivalent to the proportion in which each one is present in 200 mg/kg of the HMWS Active Ingredient. Furthermore, the effect of HMWS was compared with the effect of pure free fatty acid (AcGL) extract administered at equal doses. […] To determine lipid peroxidation, the formation of substances reactive to thiobarbituric acid (SRATB) was quantified (according to Ohkawa et al., 1979) in plasma, and was expressed as nmol malondialdehyde (MDA)/mg of protein. To determine protein oxidation, sulfhydryl (SH) groups were determined (technique described by Miao-Lin Hu, 1994). […] The absorbance of the supernatant was read at 412 nm. […] The protein concentration was determined by the modified Lowry method ([…], 1987).
# [3] = system: spinal cord of rabbits with Ischemia/Reperfusion (I/R); test: Histological score of the spinal cord after ischemia/reperfusion; type: in vivo, New Zealand rabbits; conditions: oral for 10 days: HMWS 200, AcGS 132, AlcG 40, AldG 28, AcGL 200, ASA 60 (table) mg/kg
# Protocol: The substances HMWS, AcGS, AlcG, AldG, AcGL and aspirin were prepared as suspensions in an acacia/water vehicle (1%). Once the quarantine was completed, the rabbits were distributed into 8 groups: a negative control that only received vehicle and was not induced ischemia and 7 groups with spinal cord ischemia: a positive control treated only with the vehicle, and 6 groups were treated with HMWS (200 mg/kg), AcGS (132 mg/kg), AlcG (40 mg/kg), AldG (28 mg/kg), AcGL (200 mg/kg), and aspirin (2 mg/kg) as reference substance. All treatments were administered orally via intragastric tubing (1 mL/2 kg body weight) for 10 days.
# For the induction of ischemia in the spinal cord, the rabbits were anesthetized with thiopental (20 mg/kg i.v.). The abdomen was depilated, an antiseptic solution was applied, an incision was made in the ventral midline and the retroperitoneal space was penetrated. The aorta and left renal artery were dissected and exposed. The aorta was ligated by placing a clip immediately below the left renal artery for 20 minutes, after which it was removed and the reperfusion period began. […] At 4 and 24 hours of reperfusion, the neurological deficit of the animals was blindly evaluated by 2 independent observers (according to Zivin et al., 1982). […]
structure (smiles),measurement,setting,value
"CC(=O)Oc1ccccc1C(=O)O [ASA, aspirin]",Mortality 24 h (%),[1],40+ %
same,Inhibition (%) of SH groups increase,[2],12%
same,"Histologic Score (spinal cord, 3 = no injuries, 0 = severe)","[3]; 24 hours after reperfusion, positive control 0.00 ± 0.05",0.9 ± 0.15
same,Inhibition (%) of histological damage in the spinal cord,[3]; I/R,30%
